{
  "source": "paper PMC11992225",
  "about": "“Antibacterial compounds against non-growing and intracellular bacteria” (npj Antimicrobials and Resistance, 2025)",
  "key": {"non-growing UPEC CFT073": {"tested_on": "non-growing UPEC CFT073", "experiment": "Dose-dependent killing analysis (CFU spot-plating) of stationary-phase UPEC", "format": "cell-based, Escherichia coli", "in_short": "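Killing assessed by CFU counts: overnight 37 °C LB agar spot plates (10 μl drops of 10-fold PBS dilutions) scored at the lowest dilution with distinct colonies. Samples were compound-treated non-growing UPEC CFT073, 200 μl per well. Performed as three biological replicates.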"}, "[1]": {"tested_on": "non-growing S. aureus DSM2569", "experiment": "Dose-dependent killing analysis (CFU spot-plating) of stationary-phase S. aureus", "format": "cell-based, Staphylococcus aureus", "settings": "for Δlog10(CFU/ml): S. aureus, average killing vs before treatment (9,097)", "in_short": "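Survival was scored as CFU after overnight growth at 37 °C on LB agar, using spots from 10-fold PBS dilutions of treated cultures. Non-growing S. aureus DSM2569 had been exposed to compound for 24 h in 1:4 CA-MHB, pH 7.4. Three biological replicates were run.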"}, "[2]": {"tested_on": "intracellular S. flexneri 5a M90T in TC7 cells", "experiment": "microbe, parasite or virus in culture", "format": "cell-based, Shigella flexneri", "settings": "TC7 cells"}},
  "note": "Several values for one entry are separate records, joined by “and”; a condition that tells them apart may be missing. Equal entries are not always repeated.",
  "data": [
    {"substance": "Bleomycin", "values": [
      {"measurement": "Δlog10(CFU/ml)", "setting": "non-growing UPEC CFT073; E. coli in 1:4 CA-MHB (pH 7.4), 0.25 μM, average killing vs before treatment (8.977)", "value": "0.270 log10(CFU/ml)"},
      {"measurement": "Δlog10(CFU/ml)", "setting": "non-growing UPEC CFT073; E. coli in 1:4 CA-MHB (pH 7.4), 0.5 μM, average killing vs before treatment (8.977)", "value": "0.232 log10(CFU/ml)"},
      {"measurement": "Δlog10(CFU/ml)", "setting": "non-growing UPEC CFT073; E. coli in 1:4 CA-MHB (pH 7.4), 1 μM, average killing vs before treatment (8.977)", "value": "0.145 log10(CFU/ml)"},
      {"measurement": "Δlog10(CFU/ml)", "setting": "non-growing UPEC CFT073; E. coli in 1:4 CA-MHB (pH 7.4), 2.5 μM, average killing vs before treatment (8.977)", "value": "0.654 log10(CFU/ml)"},
      {"measurement": "Δlog10(CFU/ml)", "setting": "non-growing UPEC CFT073; E. coli in 1:4 CA-MHB (pH 7.4), 5 μM, average killing vs before treatment (8.977)", "value": "1.149 log10(CFU/ml)"},
      {"measurement": "Δlog10(CFU/ml)", "setting": "non-growing UPEC CFT073; E. coli in 1:4 CA-MHB (pH 7.4), 10 μM, average killing vs before treatment (8.977)", "value": "1.686 log10(CFU/ml)"},
      {"measurement": "Δlog10(CFU/ml)", "setting": "non-growing UPEC CFT073; E. coli in LPM (pH 5.5), 0.25 μM, average killing vs before treatment (7.350)", "value": "0.339 log10(CFU/ml)"},
      {"measurement": "Δlog10(CFU/ml)", "setting": "non-growing UPEC CFT073; E. coli in LPM (pH 5.5), 0.5 μM, average killing vs before treatment (7.350)", "value": "0.181 log10(CFU/ml)"},
      {"measurement": "Δlog10(CFU/ml)", "setting": "non-growing UPEC CFT073; E. coli in LPM (pH 5.5), 1 μM, average killing vs before treatment (7.350)", "value": "0.347 log10(CFU/ml)"},
      {"measurement": "Δlog10(CFU/ml)", "setting": "non-growing UPEC CFT073; E. coli in LPM (pH 5.5), 2.5 μM, average killing vs before treatment (7.350)", "value": "0.457 log10(CFU/ml)"},
      {"measurement": "Δlog10(CFU/ml)", "setting": "non-growing UPEC CFT073; E. coli in LPM (pH 5.5), 5 μM, average killing vs before treatment (7.350)", "value": "1.004 log10(CFU/ml)"},
      {"measurement": "Δlog10(CFU/ml)", "setting": "non-growing UPEC CFT073; E. coli in LPM (pH 5.5), 10 μM, average killing vs before treatment (7.350)", "value": "1.335 log10(CFU/ml)"},
      {"measurement": "Log10(CFU/ml), Replicate #1", "setting": "non-growing UPEC CFT073; pH 5.5", "value": "5.301 Log10(CFU/ml) and 5.477 Log10(CFU/ml) and 6.204 Log10(CFU/ml) and 6.279 Log10(CFU/ml) and 6.491 Log10(CFU/ml) and 6.477 Log10(CFU/ml)"},
      {"measurement": "Log10(CFU/ml), Replicate #2", "setting": "non-growing UPEC CFT073; pH 5.5", "value": "5.568 Log10(CFU/ml) and 6.114 Log10(CFU/ml) and 6.778 Log10(CFU/ml) (2×) and 6.903 Log10(CFU/ml) and 6.477 Log10(CFU/ml)"},
      {"measurement": "Log10(CFU/ml), Replicate #3", "setting": "non-growing UPEC CFT073; pH 5.5", "value": "7.176 Log10(CFU/ml) and 7.447 Log10(CFU/ml) and 7.699 Log10(CFU/ml) and 7.954 Log10(CFU/ml) and 8.114 Log10(CFU/ml) and 8.079 Log10(CFU/ml)"},
      {"measurement": "Log10(CFU/ml), Replicate #1", "setting": "non-growing UPEC CFT073; pH 7.4", "value": "7.903 Log10(CFU/ml) and 8.362 Log10(CFU/ml) and 8.903 Log10(CFU/ml) and 9.462 Log10(CFU/ml) and 9.362 Log10(CFU/ml) and 9.114 Log10(CFU/ml)"},
      {"measurement": "Log10(CFU/ml), Replicate #2", "setting": "non-growing UPEC CFT073; pH 7.4", "value": "6.556 Log10(CFU/ml) and 7.279 Log10(CFU/ml) and 7.954 Log10(CFU/ml) and 8.778 Log10(CFU/ml) and 8.699 Log10(CFU/ml) and 8.301 Log10(CFU/ml)"},
      {"measurement": "Log10(CFU/ml), Replicate #3", "setting": "non-growing UPEC CFT073; pH 7.4", "value": "7.415 Log10(CFU/ml) and 7.845 Log10(CFU/ml) and 8.114 Log10(CFU/ml) and 8.255 Log10(CFU/ml) and 8.176 Log10(CFU/ml)"},
      {"measurement": "Log10(CFU/ml), Replicate #1", "setting": "[1]", "value": "6.114 Log10(CFU/ml) and 7.898 Log10(CFU/ml) and 8.934 Log10(CFU/ml) and 8.881 Log10(CFU/ml)"},
      {"measurement": "Log10(CFU/ml), Replicate #2", "setting": "[1]", "value": "6.845 Log10(CFU/ml) and 8.447 Log10(CFU/ml) and 8.959 Log10(CFU/ml) and 9.255 Log10(CFU/ml)"},
      {"measurement": "Log10(CFU/ml), Replicate #3", "setting": "[1]", "value": "6.863 Log10(CFU/ml) and 8.431 Log10(CFU/ml) and 8.778 Log10(CFU/ml) and 8.944 Log10(CFU/ml)"},
      {"measurement": "Δlog10(CFU/ml)", "setting": "[1]; 0.1 μM", "value": "0.070 log10(CFU/ml)"},
      {"measurement": "Δlog10(CFU/ml)", "setting": "[1]; 0.5 μM", "value": "0.206 log10(CFU/ml)"},
      {"measurement": "Δlog10(CFU/ml)", "setting": "[1]; 2.5 μM", "value": "0.838 log10(CFU/ml)"},
      {"measurement": "Δlog10(CFU/ml)", "setting": "[1]; 10 μM", "value": "2.490 log10(CFU/ml)"},
      {"measurement": "inhibition of intracellular Shigella", "setting": "[2]", "value": "inactive"}
    ]}
  ]
}
